The values that follow come from PMC7482398 (Molecular Pharmaceutics, 2020).

Data set [1] deals with Sprague Dawley rats. The settings on record: male and female Sprague Dawley rats, 2.5 mg/kg body weight, 14 days of observation; cited from earlier work.
The test system of data set [2] is Salmonella typhimurium. The settings on record: Salmonella typhimurium mutation test; cited from earlier work.
Data set [3] relates to Escherichia coli. The settings on record: Escherichia coli mutation test; cited from earlier work.
In data set [4] the test system is P-gp function at the BBB. The settings on record: cited from earlier work.
The conditions of data set [5]: rhesus monkey, in vivo.
The subject of data set [6] is P-gp. The settings on record: cited from earlier work.
In data set [7] the test system is P-gp function at the blood–brain barrier. The settings on record: rhesus monkey, in vivo.
The conditions of data set [8]: rats, 30 min after tracer injection; cited from earlier work.
For data set [9] the following is noted: cited from earlier work.
Setting [10] is: after P-gp inhibition, tariquidar 8 mg/kg i.v. 30 min before PET.

Where two headings read alike, the source gives them in different places.

Turning to `COc1cc2c(cc1OC)CN(CCCC1CCCc3c(OCCF)cccc31)CC2` (stereo not shown) [MC225, 5-(1-(2-fluoroethoxy))-[3-(6,7-dimethoxy-3,4-dihydro-1H-isoquinolin-2-yl)-propyl]-5,6,7,8-tetrahydronaphthalen], in data set [1], the toxicity entry was “did not cause toxicity”. The mutagenic activity result in [2] and in data set [3] was “did not reveal any mutagenic activity” in each case.

Usually log D stands for lipophilicity at a set pH, counting ionised and neutral species. With `COc1cc2c(cc1OC)CN(CCCC1CCCc3c(OCC[18F])cccc31)CC2` (stereo not shown) [[^18F]MC225], in data set [4] (setting [10]), the K1 rats is on record as 0.81 and the VT rats is listed as 20. Moreover, in data set [4] (baseline scans), the K1 rats was 0.12 mL/mL/min and the VT rats was 7.7. For the same compound, in data set [4] (rats), the “increase in K1 after tariquidar compared with baseline” value was 6–11 fold, the “increase in VT after tariquidar compared with baseline” value is reported as 2–4 fold, the “whole brain K1 higher in tariquidar-treated rats than in control rats” value is given as 575% and the “whole brain VT higher in tariquidar-treated rats than in control rats” value was 159%. For the same compound, the “plasma radioactivity representing the parent tracer” value in [5] is given as 50%. For the same compound, the “difference in biological T1/2 and Ke between baseline and after-inhibition scans” value in data set [5] (8 mg/kg) is given as “did not find significant differences”. The “VT (brain uptake at the baseline)” value in data set [6] (mice and rats, baseline) is reported as 6.6–11. Further, the “transporter selectivity (P-gp vs BCRP)” value in data set [6] (ref Savolainen et al. (2017), 14) was “selectively transported by P-gp and not by BCRP”. In addition, in [7], the “change in K1 between baseline and after-inhibition” value is 42–44%; the “increase of whole brain VT from 10 min to 91-min data” value was found to be 165%. The “parent [18F]MC225 still available in plasma” value in data set [8] is recorded as 24%. Moreover, in [9], the “log D” value is 3.0.
